Tests used:
[1] = Tolerability of emulsions in guinea pig test model; assay type: in vivo, Meerschweinchen; details: Meerschweinchentestmodell
[2] = Immunostimulatory and adjuvant effect in mouse test model; assay type: in vivo, Mäuse; details: as component of an oil-in-water emulsion, Mäusetestmodell

Q: What does the source list for Hexansäurehexylester [Verbindung 2]?
A: Verträglichkeit der Emulsionen [1]: sehr gut verträglich; immunstimulatorische und adjuvante Wirkung [2]: immunstimulatorische und adjuvante Wirkung
